Earlier results in patent US8754219B2, “Compounds that modulate intracellular calcium” (Calcimedica, Inc., priority 2010, dated 2014).

Key:
[1] = target: STIM1 and Orai1 in HEK293 cells (Homo sapiens, UniProt Q96D31); conditions: Orai1 expressed along with STIM1
Jurkat cells [2] = tested on: Jurkat cells
Jurkat cells [3] = tested on: Jurkat cells; remark: listed apart in the source
colon cancer cells [4] = tested on: colon cancer cells
colon cancer cells [5] = tested on: colon cancer cells; remark: listed apart in the source

Sequence of STIM1 and Orai1 in HEK293 cells (Q96D31 whole entry): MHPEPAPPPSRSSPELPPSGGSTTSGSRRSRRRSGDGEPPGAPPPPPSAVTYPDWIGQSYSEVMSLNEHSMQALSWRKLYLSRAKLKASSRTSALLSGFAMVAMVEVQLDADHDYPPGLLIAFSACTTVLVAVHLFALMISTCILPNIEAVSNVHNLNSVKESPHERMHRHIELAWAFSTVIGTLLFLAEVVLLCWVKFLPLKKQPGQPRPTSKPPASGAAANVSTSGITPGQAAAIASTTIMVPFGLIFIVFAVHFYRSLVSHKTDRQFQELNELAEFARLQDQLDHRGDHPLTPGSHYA

block of store dependent Ca2+ entry [1] | SMILES | inhibition of proliferation (Jurkat cells [2]) | inhibition of SOCE (Jurkat cells [3]) | inhibition of proliferation (colon cancer cells [4]) | inhibition of SOCE (colon cancer cells [5])
completely blocked | NCCOB(c1ccccc1)c1ccccc1 [2-aminoethoxydiphenylborate] | – | – | – | –
– | Cc1nnsc1C(=O)Nc1ccc(-n2nc(C(F)(F)F)cc2C(F)(F)F)cc1 [BTP-2] | inhibits | inhibits | inhibits | inhibits
